Results as given in patent US7772255B2, “Method of treating tumors with azaxanthones” (Supratek Pharma, Inc., priority 2005, dated 2010).

Assays:
[1] = tested on: metastatic (Stage III-Stage IV) breast cancer; experiment: Amlexanox monotherapy in advanced metastatic breast cancer resistant to prior chemotherapy (Example 8); format: in vivo, human; details: 500 mg orally twice daily; baseline until nine months after administration and follow up
Protocol: In this study 44 women patients with metastatic (Stage III-Stage IV) breast cancer who have relapsed following prior cytotoxic chemotherapy regiments containing anthracyclines and/or taxanes are treated by administering 500 mg amlexanox twice daily with two amlexanox 250 mg tablets prepared in Example 3 taken twice daily orally as outpatients. This treatment is carried out for determining the overall (complete and partial) response rate. In this group, the stable disease rate of patients treated with amlexanox is determined. In addition, in each of the treated patients, the time to disease progression is also determined. The results of this study are compared to untreated patients with metastatic (Stage III-Stage IV) breast cancer who have relapsed following the same prior cytotoxic chemotherapy regiment. […] The patients are evaluated by standard WHO and/or RECIST criteria for response and disease status at six week intervals. […] All of the patients during the evaluation period are evaluated by the measurement of the tumors, survival and determination of any progression of the disease in the patient. Stability is measured during each evaluation to determine if there is any increase in the size and amount of tumors from the proceeding period and if there is no subsequent appearance of any other malignancies in the patient. […]

colorectal cancer = experiment: Amlexanox in combination with irinotecan in colorectal cancer, first-line (Example 9); format: in vivo, human; details: amlexanox tablets orally plus irinotecan 350 mg/m^2 i.v. every 3 weeks, versus irinotecan alone
Protocol: In this open label randomized multicenter study 150 patients with colorectal cancer who have tumors that cannot be completely removed by surgery are treated by administering irinotecan alone and 150 patients, with colorectal cancer who have tumors that cannot be completely removed by surgery, are treated with combination of irinotecan and 500 mg amlexanox daily with two amlexanox 250 mg tablets, prepared in Example 3, taken twice daily orally to provide a daily dose of […] of amlexanox. Irinotecan was administered to all of the patients at a dose of 350 mg/m^2 once every 3 weeks intravenously during the course of this study. […] In addition, in each of the treated patients, duration of overall response, time to overall response, duration of progression-free survival, overall clinical benefit rate, overall survival rate and quality of life are determined. […] The patients are evaluated by standard WHO and/or RECIST criteria for response and disease status at six week intervals. […] All of the patients during the evaluation period are evaluated by the measurement of the tumors, survival and determination of any progression of the disease in the patient. Stability is measured during each evaluation to determine if there is any increase in the size and amount of tumors from the proceeding period and if there is no subsequent appearance of any other malignancies in the patient. […]

CC(C)c1ccc2oc3nc(N)c(C(=O)O)cc3c(=O)c2c1 [Amlexanox, 2-amino-7-isopropyl-1-azaxanthone-3-carboxylic acid]
percentage of patients with no progression of the disease by WHO and/or RECIST criteria, compared to the non-treated group [1]: greater percentage of the patients in the group of patients treated with the amlexanox show no progression of the disease
percentage of patients with beneficial results (overall response rate, progression-free survival, overall survival etc.) (colorectal cancer): greater percentage of the patients in the group of patients treated with the amlexanox show beneficial results
